Measurements published in patent USRE47193E1, “Selectively substituted quinoline compounds” (EISAI R&D MANAGEMENT CO., LTD., priority 2013, dated 2019).
Like-named read-outs stand apart in the source and are kept apart here.

Molecular target: T1, mouse TLR7 (Mus musculus, UniProt P58681)
T1 sequence (P58681 27-1050): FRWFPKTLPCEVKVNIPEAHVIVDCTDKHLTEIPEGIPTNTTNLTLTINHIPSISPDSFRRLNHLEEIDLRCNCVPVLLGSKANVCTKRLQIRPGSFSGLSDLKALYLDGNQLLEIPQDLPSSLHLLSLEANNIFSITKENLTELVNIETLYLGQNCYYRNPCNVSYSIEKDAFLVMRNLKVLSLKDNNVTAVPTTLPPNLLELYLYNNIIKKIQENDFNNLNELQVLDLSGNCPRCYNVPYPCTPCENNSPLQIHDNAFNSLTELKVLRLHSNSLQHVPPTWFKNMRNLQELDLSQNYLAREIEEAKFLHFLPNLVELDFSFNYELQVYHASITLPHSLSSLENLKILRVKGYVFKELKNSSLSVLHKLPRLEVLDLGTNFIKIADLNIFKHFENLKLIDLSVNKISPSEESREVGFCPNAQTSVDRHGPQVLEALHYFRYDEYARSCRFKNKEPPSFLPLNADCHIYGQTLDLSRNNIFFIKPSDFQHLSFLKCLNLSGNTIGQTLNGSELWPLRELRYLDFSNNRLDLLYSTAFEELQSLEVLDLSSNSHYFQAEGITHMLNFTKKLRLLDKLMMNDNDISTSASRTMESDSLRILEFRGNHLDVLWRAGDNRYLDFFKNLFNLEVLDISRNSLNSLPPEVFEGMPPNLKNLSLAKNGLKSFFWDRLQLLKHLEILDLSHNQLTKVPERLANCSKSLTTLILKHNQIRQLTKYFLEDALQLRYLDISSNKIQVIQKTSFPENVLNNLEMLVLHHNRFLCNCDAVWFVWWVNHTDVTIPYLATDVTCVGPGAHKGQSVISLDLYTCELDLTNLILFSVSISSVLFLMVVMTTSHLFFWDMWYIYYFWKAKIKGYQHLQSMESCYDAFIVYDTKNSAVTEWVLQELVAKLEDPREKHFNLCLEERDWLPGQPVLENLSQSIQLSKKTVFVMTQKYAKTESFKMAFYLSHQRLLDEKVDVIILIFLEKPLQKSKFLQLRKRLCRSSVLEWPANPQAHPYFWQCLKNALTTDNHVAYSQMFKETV
Assay: HEK-293 mouse TLR7 NF-kappaB luciferase reporter assay (CL097)
Assay type: cell-based
Settings: HEK-mTLR7, average of three tests
Method: Effects on mouse TLR7 were also compared. Cells were stimulated overnight with TLR7/8 agonist CL097 at pre-determined ED70-80: 3 ug/ml for HEK-hTLR7, 1.5 ug/ml for HEK-mTLR7 and 12 ug/ml for HEK-hTLR8, before reading luminescence intensity. Three tests were performed and IC50 value was determined using Graphpad Prism 6 nonlinear regression curve fit.
HEK-293 cells (ATCC) were engineered to stably express a NF-kappaB transcription factor inducible E-selectin (ELAM-1) luciferase reporter derived from the plasmid pGL3 (Promega) containing base pairs −2241 bp to −254 bp from the promoter of the human E-selectin gene (Accession No. NM_000450). These cells were then subsequently engineered to stably and individually express human TLR4, TLR7 or TLR9 full-length ORF cDNAs. Human TLR4 cDNA (Accession No. NM_138554) was cloned into pcDNA 3.0 expression vector (Invitrogen). TLR4 transfected cells were also engineered to express human MD-2 co-receptor [MD-2 cDNA (Accession No. NM_015364) was cloned into the pEF-BOS vector] and were supplemented with 10 nM soluble CD14 (R&D Systems) in the media to optimize LPS responsiveness. Human TLR9 cDNA (Accession No. NM_017442) was cloned into the pBluescript II KS vector (Agilent). Human TLR7 cDNA (Accession No. NM_016562) was obtained from OriGene. […]

| Structure (SMILES) | IC50 (IC50 average) [µM] | IC50 (read-out: IC50 average) [µM] |
| --- | --- | --- |
| C[C@@H]1CN(c2ccc(C#N)c3ncccc23)C[C@H](C(=O)N[C@H]2CNC[C@H]2F)O1.Cl [ER-899742, (2R,6R)-4-(8-cyanoquinolin-5-yl)-N-[(3S,4R)-4-fluoropyrrolidin-3-yl]-6-methylmorpholine-2-carboxamide hydrochloride] | 0.071 |  |
| CCN(CCO)CCCC(C)Nc1ccnc2cc(Cl)ccc12 (centres unmarked) [HCQ, hydroxychloroquine, reference compound] |  | 14.1 |
